The source of these data is the supplement of paper PMC10307832.

What all share (experiment): relative viability (nuclei count vs DMSO), 5 days (fraction); higher = more cells survive
Compound in experiment [1]: Cn1cncc1[C@@](N)(c1ccc(Cl)cc1)c1ccc2c(c1)c(-c1cccc(Cl)c1)cc(=O)n2C [Tipifarnib] + COc1cc2c(Oc3ccc(NC(=O)C4(C(=O)Nc5ccc(F)cc5)CC4)cc3F)ccnc2cc1OCCCN1CCOCC1 [Foretinib] (partner 0.25 µM)
An outline of the steps:
(§1)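 Lung cancer cell lines were seeded in 1536-well plates and dosed by pin tool the next day, with either a single drug or a fixed anchor-drug dose combined with five library-drug doses (not always all listed) spaced in √10 steps. Five days later, one step fixed the cells and stained their nuclei (final 0.05% Triton X-100, 1% formaldehyde, 1 ug/ml Hoechst), and nuclei were counted on 4× images. Relative viability is the nuclei count in treated wells divided by the count in vehicle wells, and each value is the median of duplicate plates.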

Compound in experiment [2]: Cn1cncc1[C@@](N)(c1ccc(Cl)cc1)c1ccc2c(c1)c(-c1cccc(Cl)c1)cc(=O)n2C [Tipifarnib] + Cc1nc(NC(=O)N2CCC[C@H]2C(N)=O)sc1-c1ccnc(C(C)(C)C(F)(F)F)c1 [Alpelisib] (partner 2 µM)
An outline of the steps: as §1

Compound in experiment [3]: Cn1cncc1[C@@](N)(c1ccc(Cl)cc1)c1ccc2c(c1)c(-c1cccc(Cl)c1)cc(=O)n2C [Tipifarnib] + Nc1nc2[nH]cc(CCc3ccc(C(=O)N[C@@H](CCC(=O)O)C(=O)O)cc3)c2c(=O)[nH]1 [Pemetrexed] (partner 0.2 µM)
The gist of the method:
as §1

Compound in experiment [4]: Cn1cncc1[C@@](N)(c1ccc(Cl)cc1)c1ccc2c(c1)c(-c1cccc(Cl)c1)cc(=O)n2C [Tipifarnib] + O=C(c1cc(Cc2n[nH]c(=O)c3ccccc23)ccc1F)N1CCN(C(=O)C2CC2)CC1 [Olaparib] (partner 8 µM)
An outline of the steps: as §1

Regarding BEN, the relative viability was 0.609 in experiment [1] (first compound 0.01 µM); 0.686 in experiment [1] (first compound 0.03162 µM); 0.529 in experiment [1] (first compound 0.1 µM); 0.484 in experiment [1] (first compound 0.3162 µM); 0.379 in experiment [1] (first compound 1 µM); 1.14 in experiment [2] (first compound 0.01 µM). In addition, the relative viability in experiment [2] (first compound 0.03162 µM) turned out to be 0.915; in experiment [2] (first compound 0.1 µM), 1.06; in experiment [2] (first compound 0.3162 µM) it was 0.811; in experiment [2] (first compound 1 µM) it was 0.769; in experiment [3] (first compound 0.01 µM), 0.802; in experiment [3] (first compound 0.03162 µM) it was 0.81. In addition, the relative viability was 0.776 in experiment [3] (first compound 0.1 µM); 0.737 in experiment [3] (first compound 0.3162 µM); 0.598 in experiment [3] (first compound 1 µM); 1.26 in experiment [4] (first compound 0.01 µM); 1.11 in experiment [4] (first compound 0.03162 µM); 0.954 in experiment [4] (first compound 0.1 µM). The relative viability in experiment [4] (first compound 0.3162 µM) was found to be 0.96; in experiment [4] (first compound 1 µM), 0.954.

Regarding LC-2-ad, the relative viability was 0.968 in experiment [1] (first compound 0.01 µM); 0.896 in experiment [1] (first compound 0.03162 µM); 0.807 in experiment [1] (first compound 0.1 µM); 0.609 in experiment [1] (first compound 0.3162 µM); 0.657 in experiment [1] (first compound 1 µM); 0.829 in experiment [2] (first compound 0.01 µM). Besides, the relative viability is 0.54 in experiment [2] (first compound 0.03162 µM); 0.375 in experiment [2] (first compound 0.1 µM); 0.411 in experiment [2] (first compound 0.3162 µM); 0.321 in experiment [2] (first compound 1 µM); 0.273 in experiment [3] (first compound 0.01 µM); 0.271 in experiment [3] (first compound 0.03162 µM). The relative viability in experiment [3] (first compound 0.1 µM) came to 0.283; in experiment [3] (first compound 0.3162 µM), 0.265; in experiment [3] (first compound 1 µM), 0.275; in experiment [4] (first compound 0.01 µM), 0.69; in experiment [4] (first compound 0.03162 µM) it was 0.667; in experiment [4] (first compound 0.1 µM) it was 0.666. Besides, the relative viability is 0.533 in experiment [4] (first compound 0.3162 µM) and 0.515 in experiment [4] (first compound 1 µM).

Take COR-L23: the relative viability was determined as 1.14 in experiment [1] (first compound 0.01 µM); 0.839 in experiment [1] (first compound 0.03162 µM); 0.699 in experiment [1] (first compound 0.1 µM); 0.618 in experiment [1] (first compound 0.3162 µM); 0.579 in experiment [1] (first compound 1 µM); 0.808 in experiment [2] (first compound 0.01 µM). The relative viability in experiment [2] (first compound 0.03162 µM) came to 0.525; in experiment [2] (first compound 0.1 µM) it was 0.431; in experiment [2] (first compound 0.3162 µM), 0.373; in experiment [2] (first compound 1 µM) it was 0.338; in experiment [3] (first compound 0.01 µM) it was 0.215; in experiment [3] (first compound 0.03162 µM), 0.205. For the same cell line, the relative viability came out at 0.195 in experiment [3] (first compound 0.1 µM); 0.206 in experiment [3] (first compound 0.3162 µM); 0.188 in experiment [3] (first compound 1 µM); 0.403 in experiment [4] (first compound 0.01 µM); 0.289 in experiment [4] (first compound 0.03162 µM); 0.335 in experiment [4] (first compound 0.1 µM). For the same cell line, the results for the relative viability in experiment [4] (first compound 0.3162 µM) and in experiment [4] (first compound 1 µM) were 0.255 and 0.258, respectively.

Turning to RERF-LC-KJ, the relative viability in experiment [1] (first compound 0.01 µM) stood at 0.917; in experiment [1] (first compound 0.03162 µM), 0.965; in experiment [1] (first compound 0.1 µM) it was 0.799; in experiment [1] (first compound 0.3162 µM) it was 0.773; in experiment [1] (first compound 1 µM) it was 0.393; in experiment [2] (first compound 0.01 µM), 0.955. Besides, the relative viability was 0.919 in experiment [2] (first compound 0.03162 µM); 0.592 in experiment [2] (first compound 0.1 µM); 0.631 in experiment [2] (first compound 0.3162 µM); 0.55 in experiment [2] (first compound 1 µM); 0.474 in experiment [3] (first compound 0.01 µM); 0.6 in experiment [3] (first compound 0.03162 µM). Further, the relative viability was found to be 0.46 in experiment [3] (first compound 0.1 µM); 0.427 in experiment [3] (first compound 0.3162 µM); 0.362 in experiment [3] (first compound 1 µM); 0.993 in experiment [4] (first compound 0.01 µM); 0.898 in experiment [4] (first compound 0.03162 µM); 0.864 in experiment [4] (first compound 0.1 µM). The values for the relative viability in experiment [4] (first compound 0.3162 µM) and in experiment [4] (first compound 1 µM) were 0.718 and 0.699, respectively.

In the case of NCI-H1915, the relative viability is 1.01 in experiment [1] (first compound 0.01 µM); 0.816 in experiment [1] (first compound 0.03162 µM); 0.606 in experiment [1] (first compound 0.1 µM); 0.593 in experiment [1] (first compound 0.3162 µM); 0.577 in experiment [1] (first compound 1 µM); 0.817 in experiment [2] (first compound 0.01 µM). For the same cell line, the relative viability in experiment [2] (first compound 0.03162 µM) came out at 0.624; in experiment [2] (first compound 0.1 µM) it was 0.544; in experiment [2] (first compound 0.3162 µM), 0.48; in experiment [2] (first compound 1 µM) it was 0.457; in experiment [3] (first compound 0.01 µM), 0.549; in experiment [3] (first compound 0.03162 µM), 0.449. Moreover, the relative viability in experiment [3] (first compound 0.1 µM) amounted to 0.449; in experiment [3] (first compound 0.3162 µM) it was 0.353; in experiment [3] (first compound 1 µM), 0.298; in experiment [4] (first compound 0.01 µM) it was 0.237; in experiment [4] (first compound 0.03162 µM) it was 0.248; in experiment [4] (first compound 0.1 µM) it was 0.25. Further, the relative viability turned out to be 0.231 in experiment [4] (first compound 0.3162 µM) and 0.242 in experiment [4] (first compound 1 µM).

In the case of NCI-H596, the relative viability is 1.05 in experiment [1] (first compound 0.01 µM); 0.857 in experiment [1] (first compound 0.03162 µM); 0.619 in experiment [1] (first compound 0.1 µM); 0.569 in experiment [1] (first compound 0.3162 µM); 0.53 in experiment [1] (first compound 1 µM); 0.516 in experiment [2] (first compound 0.01 µM). In addition, the relative viability in experiment [2] (first compound 0.03162 µM) is 0.547; in experiment [2] (first compound 0.1 µM), 0.0161; in experiment [2] (first compound 0.3162 µM), 0.436; in experiment [2] (first compound 1 µM), 0.356; in experiment [3] (first compound 0.01 µM), 0.488; in experiment [3] (first compound 0.03162 µM), 0.492. The relative viability turned out to be 0.482 in experiment [3] (first compound 0.1 µM); 0.528 in experiment [3] (first compound 0.3162 µM); 0.514 in experiment [3] (first compound 1 µM); 0.667 in experiment [4] (first compound 0.01 µM); 0.693 in experiment [4] (first compound 0.03162 µM); 0.65 in experiment [4] (first compound 0.1 µM). Moreover, the relative viability in experiment [4] (first compound 0.3162 µM) is 0.574; in experiment [4] (first compound 1 µM), 0.593.

For NCI-H2009, the relative viability in experiment [1] (first compound 0.01 µM) was 1.3; in experiment [1] (first compound 0.03162 µM) it was 1.11; in experiment [1] (first compound 0.1 µM), 0.84; in experiment [1] (first compound 0.3162 µM), 0.645; in experiment [1] (first compound 1 µM) it was 0.7; in experiment [2] (first compound 0.01 µM) it was 1.18. Also, the relative viability turned out to be 1.06 in experiment [2] (first compound 0.03162 µM); 0.899 in experiment [2] (first compound 0.1 µM); 0.689 in experiment [2] (first compound 0.3162 µM); 0.679 in experiment [2] (first compound 1 µM); 0.979 in experiment [3] (first compound 0.01 µM); 0.999 in experiment [3] (first compound 0.03162 µM). Also, the relative viability in experiment [3] (first compound 0.1 µM) came out at 0.7; in experiment [3] (first compound 0.3162 µM), 0.658; in experiment [3] (first compound 1 µM), 0.694; in experiment [4] (first compound 0.01 µM), 0.729; in experiment [4] (first compound 0.03162 µM), 0.714; in experiment [4] (first compound 0.1 µM), 0.585. The values for the relative viability in experiment [4] (first compound 0.3162 µM) and in experiment [4] (first compound 1 µM) were 0.558 and 0.469, respectively.
